How the values were obtained:
[1] = molecular target: T1, Recombinant human JAK1 (catalytic domain, amino acids 866-1154) (Homo sapiens, UniProt P23458); assay: JAK1 inhibition assay; assay type: biochemical; conditions: read-out: JAK1 potency IC50
T1 construct: catalytic domain, amino acids 866-1154
Experimental: (§1) After 60 min at room temperature, reactions are stopped by adding 20 μL/well of detection mixture (1× detection buffer (Perkin Elmer, catalog number CR97-100), 0.5 nM Europium-anti-phosphotyrosine (PT66) (Perkin Elmer, catalog number AD0068/AD0069), 10 mM EDTA). […] Kinase activity is calculated by subtracting the ratio obtained in the presence of a positive control inhibitor (1 μM staurosporine) from the ratio obtained in the presence of vehicle. The ability of a test compound to inhibit this activity (or percentage inhibition) is determined as:
(§2) [formula] wherein Fluorescent ratio test compound=ratio RFU665/RFU615*1000 determined for sample with test compound present Fluorescent ratio control=ratio RFU665/RFU615*1000 determined for sample with positive control inhibitor Fluorescent ratio vehicle=ratio RFU665/RFU615*1000 determined in the presence of vehicle
(§3) Dose dilution series were prepared for the compounds enabling the testing of dose-response effects in the JAK1 assay and the calculation of the IC50 for the compound. Each compound is routinely tested at concentration of 20 μM followed by a 1/5 serial dilution, 10 points in a final concentration of 1% DMSO. […] The data are expressed as the average IC50 from the assays.

[2] = molecular target: T2, Recombinant human JAK2 (catalytic domain, amino acids 808-1132) (Homo sapiens, UniProt O60674); assay: JAK2 inhibition assay; assay type: biochemical; conditions: read-out: JAK2 potency IC50; note: 0.7 µM ATP
T2 construct: catalytic domain, amino acids 808-1132
T2 sequence (O60674 808-1132): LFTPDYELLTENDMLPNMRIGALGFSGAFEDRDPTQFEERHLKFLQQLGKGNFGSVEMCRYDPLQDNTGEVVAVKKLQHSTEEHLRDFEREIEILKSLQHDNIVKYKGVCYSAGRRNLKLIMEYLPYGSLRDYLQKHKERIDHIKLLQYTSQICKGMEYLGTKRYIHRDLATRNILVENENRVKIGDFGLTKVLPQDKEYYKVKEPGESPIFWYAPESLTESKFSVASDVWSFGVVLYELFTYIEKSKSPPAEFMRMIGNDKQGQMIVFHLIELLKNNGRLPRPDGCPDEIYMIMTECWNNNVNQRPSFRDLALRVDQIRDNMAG
Experimental: as §1, with “CR97-100) with” for “CR97-100),”, “AD0068/AD0069) and” for “AD0068/AD0069),”
as §2
as §3, with “are” for “were”, “compound” for “the compounds”, “JAK2” for “JAK1”

[3] = molecular target: Recombinant human JAK3 catalytic domain (amino acids 781-1124) (Homo sapiens, UniProt P52333); assay: JAK3 inhibition assay; assay type: biochemical
Recombinant human JAK3 catalytic domain (amino acids 781-1124), sequence (P52333 781-1124): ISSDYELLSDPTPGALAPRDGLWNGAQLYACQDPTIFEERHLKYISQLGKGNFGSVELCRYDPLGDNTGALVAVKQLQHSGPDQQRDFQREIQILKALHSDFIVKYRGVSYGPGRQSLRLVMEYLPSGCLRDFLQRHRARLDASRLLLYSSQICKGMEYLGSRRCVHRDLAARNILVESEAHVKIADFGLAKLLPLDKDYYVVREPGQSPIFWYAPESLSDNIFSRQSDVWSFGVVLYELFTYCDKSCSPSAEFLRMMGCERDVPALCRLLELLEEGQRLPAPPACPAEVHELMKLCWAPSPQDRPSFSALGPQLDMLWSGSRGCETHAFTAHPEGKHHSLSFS
Experimental: After 45 min at 30° C., reactions are stopped by adding 25 μL/well of 150 mM phosphoric acid. […] Plates are washed 6 times with 300 μL per well of a 75 mM phosphoric acid solution and the bottom of the plates is sealed. […] Kinase activity is calculated by subtracting counts per min (cpm) obtained in the presence of a positive control inhibitor (10 μM staurosporine) from cpm obtained in the presence of vehicle. The ability of a test compound to inhibit this activity (or percentage inhibition) is determined as: […]
cpm test compound=cpm determined for sample with test compound present cpm control=cpm determined for sample with positive control inhibitor cpm vehicle=cpm determined in the presence of vehicle
Dose dilution series were prepared for the compounds enabling the testing of dose-response effects in the JAK3 assay and the calculation of the IC50 for each compound. Each compound is routinely tested at concentration of 20 μM followed by a 1/5 serial dilution, 10 points in a final concentration of 1% DMSO.

[4] = molecular target: T3, Recombinant human TYK2 catalytic domain (amino acids 871-1187) (Homo sapiens, UniProt P29597); assay: TYK2 radioactive assay polyGT substrate; assay type: biochemical; note: 0.1 µM ATP
T3 construct: catalytic domain (amino acids 871-1187)
T3 sequence (P29597 871-1187): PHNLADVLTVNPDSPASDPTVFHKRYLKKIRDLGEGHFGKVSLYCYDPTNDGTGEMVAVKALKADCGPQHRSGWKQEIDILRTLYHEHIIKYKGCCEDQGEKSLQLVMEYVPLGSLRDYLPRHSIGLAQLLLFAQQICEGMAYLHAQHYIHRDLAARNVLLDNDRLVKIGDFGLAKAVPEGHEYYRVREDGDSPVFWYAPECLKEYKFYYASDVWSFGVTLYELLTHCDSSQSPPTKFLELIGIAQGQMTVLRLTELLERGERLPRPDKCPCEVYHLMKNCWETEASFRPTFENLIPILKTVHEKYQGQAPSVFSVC
In short: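 Reaction at 30° C. for 120 min, ended with 150 mM phosphoric acid, washed, counted; percent inhibition scaled between vehicle and 10 μM staurosporine cpm.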

[5] = tested on: IFNα activation of STAT1 in PBMC; assay: IFNα activation of STAT1 in PBMC; assay type: cell-based; conditions: Homo sapiens; IFNα activation of STAT1 in PBMC; average IC50; read-out: IFNα signaling inhibitory potency IC50
In short: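 Human PBMC, with red cells lysed by NH4Cl, were pre-treated with compound for 30 min at 37 °C and 5% CO2. They were then stimulated for 30 min with recombinant human IFNα at 5 ng/mL final.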

[6] = tested on: IL-12 activation of STAT4 in NK-92 cells; assay: IL-12 activation of STAT4 in NK-92 cells using AphaLISA SureFire technology; assay type: cell-based; conditions: Homo sapiens, NK92; IL-12 activation of STAT4 in NK-92 cells, AlphaLISA SureFire; average IC50; read-out: IL12 pSTAT4 IC50
In short: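 NK-92 cells, starved of rhIL-2 overnight, were stimulated with rhIL-12 for 30 min at 37 °C with test compounds, then lysed. Phospho-STAT4 (Tyr693) was read by AlphaLISA SureFire. Percent inhibition versus the vehicle-plus-trigger signal was fitted by sigmoidal nonlinear regression to give IC50, averaged over experiments.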

T1 sequence (P23458 866-1154): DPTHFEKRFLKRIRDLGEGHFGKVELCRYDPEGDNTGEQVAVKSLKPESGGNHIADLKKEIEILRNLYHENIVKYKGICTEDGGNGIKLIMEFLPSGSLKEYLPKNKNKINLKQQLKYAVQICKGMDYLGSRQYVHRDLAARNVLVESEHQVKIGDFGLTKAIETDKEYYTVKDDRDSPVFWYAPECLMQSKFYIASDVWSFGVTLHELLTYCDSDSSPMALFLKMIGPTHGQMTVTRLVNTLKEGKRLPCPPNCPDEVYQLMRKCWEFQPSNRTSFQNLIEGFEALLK

Structure (SMILES)	IC50 [1] [nM]	IC50 [2] [nM]	IC50 [3] [nM]	IC50 [4] [nM]	IC50 [5] [nM]	IC50 [6] [nM]
CC(C)[C@@H](Nc1cc(Nc2cc(N)ncn2)c2ncn(C)c2n1)C(F)(F)F [Compound 98, N7-(6-aminopyrimidin-4-yl)-3-methyl-N5-[(1R)-2-methyl-1-(trifluoromethyl)propyl]imidazo[4,5-b]pyridine-5,7-diamine]	28.2	6.31	48.2	3.04	38	18.9
COCCCS(=O)(=O)c1ccc(Nc2cc(Oc3cnc(C#N)cc3C)nc3c2ncn3C)cc1 [Compound 71, 5-[7-[4-(3-methoxypropylsulfonyl)anilino]-3-methyl-imidazo[4,5-b]pyridin-5-yl]oxy-4-methyl-pyridine-2-carbonitrile]	103	86.2	1080	13.6	111	128
Cc1cc(C#N)ncc1Oc1cc(Nc2cnn(C)c2)c2ncn(C)c2n1 [Compound 61, 4-methyl-5-[3-methyl-7-[(1-methylpyrazol-4-yl)amino]imidazo[4,5-b]pyridin-5-yl]oxy-pyridine-2-carbonitrile]	60.3	58.4	1110	10.3	112	221
COc1ccc(Nc2cc(Oc3cnc(C#N)cc3C)nc3c2ncn3C)nc1 [Compound 84, 5-[7-[(5-methoxypyridin-2-yl)amino]-3-methylimidazo[4,5-b]pyridin-5-yl]oxy-4-methylpyridine-2-carbonitrile]	57.1	45.5	908	11	178	87
Cc1cc(C#N)nnc1Oc1cc(Nc2cc(N)ncn2)c2ncn(C)c2n1 [Compound 3, 6-[7-(6-Amino-pyrimidin-4-ylamino)-3-methyl-3H-imidazo[4,5-b]pyridin-5-yloxy]-5-methyl-pyridazine-3-carbonitrile]	110	78	2160	12.7	119	274
COC1CC(Nc2cc(Nc3cc(Oc4cnc(C#N)cc4C)nc4c3ncn4C)ncn2)C1 (stereo not drawn) [Compound 36, 5-{7-[6-(3-Methoxy-cyclobutylamino)-pyrimidin-4-ylamino]-3-methyl-3H-imidazo[4,5-b]pyridin-5-yloxy}-4-methyl-pyridine-2-carbonitrile]	40.5	9.17	417	1.41	79	50
Cc1cc(C#N)ncc1Oc1cc(Nc2ccc(C3CCOCC3)cn2)c2ncn(C)c2n1 [Compound 87, 4-methyl-5-[3-methyl-7-[[5-(oxan-4-yl)pyridin-2-yl]amino]imidazo[4,5-b]pyridin-5-yl]oxypyridine-2-carbonitrile]	73.1	38.8	979	8.81	158	266
COCC1CN(C(=O)c2ccc(Nc3cc(Oc4cnc(C#N)cc4C)nc4c3ncn4C)nn2)C1 [Compound 117, 5-[7-[[6-[3-(methoxymethyl)azetidine-1-carbonyl]pyridazin-3-yl]amino]-3-methyl-imidazo[4,5-b]pyridin-5-yl]oxy-4-methyl-pyridine-2-carbonitrile]	205	32.3	2030	8.47	148	181
Cc1cc(C#N)ncc1Oc1cc(Nc2ccc(C(=O)N3CC(O)C3)nn2)c2ncn(C)c2n1 [Compound 115, 5-[7-[[6-(3-hydroxyazetidine-1-carbonyl)pyridazin-3-yl]amino]-3-methyl-imidazo[4,5-b]pyridin-5-yl]oxy-4-methyl-pyridine-2-carbonitrile]	107	29.1	2110	8.88	144	968
Cc1cc(C#N)ncc1Oc1cc(Nc2cc(NCCC(C)(C)O)ncn2)c2ncn(C)c2n1 [Compound 33, 5-{7-[6-(3-Hydroxy-3-methyl-butylamino)-pyrimidin-4-ylamino]-3-methyl-3H-imidazo[4,5-b]pyridin-5-yloxy}-4-methyl-pyridine-2-carbonitrile]	67.6	23.1	503	2.93	72	129
Cc1cc(C#N)ncc1Oc1cc(Nc2cnn(CCN3CCOCC3)c2)c2ncn(C)c2n1 [Compound 186, 4-methyl-5-[3-methyl-7-[[1-(2-morpholinoethyl)pyrazol-4-yl]amino]imidazo[4,5-b]pyridin-5-yl]oxy-pyridine-2-carbonitrile]	77.2	22.2	257	6.27	229	241
CC(C)C(Nc1cc(Nc2ccc(S(C)(=O)=O)cn2)c2ncn(C)c2n1)C(F)(F)F (stereo not drawn) [Compound 65, 3-methyl-N7-(5-methylsulfonyl-2-pyridiyl)-N5-[2-methyl-1-(trifluoromethyl)propyl]imidazo[4,5-b]pyridine-5,7-diamine]	69.4	12.4	69.7	7.84	96	80
Cc1cc(C#N)ncc1Oc1cc(Nc2ccc(OC3CCN(C)CC3)cn2)c2ncn(C)c2n1 [Compound 86, 4-methyl-5-[3-methyl-7-[[5-(1-methylpiperidin-4-yl)oxypyridin-2-yl]amino]imidazo[4,5-b]pyridin-5-yl]oxypyridine-2-carbonitrile]	197	22.9	446	9.06	121	506
Cc1cc(C#N)ncc1Oc1cc(Nc2ccc(N3CCOC[C@@H]3C)cn2)c2ncn(C)c2n1 [Compound 85, 4-methyl-5-[3-methyl-7-[[5-[(3S)-3-methylmorpholin-4-yl]pyridin-2-yl]amino]imidazo[4,5-b]pyridin-5-yl]oxypyridine-2-carbonitrile]	30.4	10.5	479	4.81	115	154

From patent US11564923B2, “Compounds and pharmaceutical compositions thereof for the treatment of inflammatory disorders” (Galapagos NV, priority 2017, dated 2023)
